Experimental data from publication PMC9917862 (International Journal of Molecular Sciences, 2023).
“Also recorded” adds a separate entry of the source. Like-named read-outs stand apart in the source and are kept apart here.

How the values were obtained:
[1] = cited from earlier work
AGP [2] = settings: pH 4.95 (acetate), 25 °C, NMR spin-lattice relaxation times; cited from earlier work
[3] = target: T1, α1-acid glycoprotein (AGP) (Homo sapiens, UniProt P02763); assay: Steady-state fluorometry, quenching of AGP fluorescence; type: binding; settings: for quenching of the fluorescence of AGP: pH 7.4 (PBS), 25 °C
T1 construct: purchased Sigma–Aldrich G9885

[4] = Aqueous stability of FAVI and IMA followed by UV-vis spectra; type: physicochemical; settings: pH 2 and 7.4; 25 °C
HSA site II = target: T2, HSA site II (Homo sapiens, UniProt P02768); assay: Dansylglycine (DG) site marker displacement from HSA; type: binding
T2 construct: purchased Sigma–Aldrich A8763

HSA (fatty acid free) = settings: pH 7; cited from earlier work
[5] = Proton dissociation constants by pH-potentiometry; type: physicochemical
Procedure: pH-potentiometric titrations of the antiviral agents were carried out similarly to our former works.

AGP (F1-S) = settings: pH 7.4 (ringer), 37 °C, circular dichroism; cited from earlier work
[6] = Proton dissociation constants by UV-vis titration; type: physicochemical
Procedure: An Agilent Carry 8454 diode array spectrophotometer was used to obtain UV-vis spectra in the interval 190–1100 nm, the path length (l) was 1 cm. The spectrophotometric titrations were performed with samples containing 25–200 μM compound over the pH range 2.0–11.5 at an ionic strength of 0.10 M (KCl) and at 25 °C. Proton dissociation constants together with the individual molar absorbance spectra were calculated with the computer program PSEQUAD [52]. The program requires the following input data: measured spectra together with the corresponding pH and analytical (total) concentration of the compounds; species matrix, with approximate protonation constant(s) and the absorbing species need to be defined. The Newton–Raphson iterative method was used to obtain protonation constant(s) with standard deviations and molar spectra of the individual species.

AGP [7] = settings: pH 4.95 (acetate), 25 °C, ITC; cited from earlier work
physchem [8] = assay: physchem
AGP (native) = settings: cited from earlier work
[9] = Calculated distribution of species in different protonation states; type: physicochemical
AGP [10] = settings: cited from earlier work
[11] = target: T3, human serum albumin (HSA) (Homo sapiens, UniProt P02768); assay: Frontal analysis capillary electrophoresis (FACE) with HSA; type: binding
T3 construct: purchased Sigma–Aldrich A8763

plasma protein = settings: cited from earlier work
physchem [12] = assay: physchem; remark: listed apart in the source
physchem [13] = settings: pH 2, logD2.0
[14] = system: α1-acid glycoprotein (AGP); settings: human
HSA site I = target: T4, HSA site I (Homo sapiens, UniProt P02768); assay: Warfarin (WF) site marker displacement from HSA; type: binding; settings: HSA-WF 1:1; pH 7.4 (PBS); 25 °C
T4 construct: purchased Sigma–Aldrich A8763

[15] = target: T1, α1-acid glycoprotein (AGP); assay: Dipyridamole (DIP) displacement from AGP, fluorescence anisotropy; type: binding; settings: cAGP = 2.0 μM; cDIP = 1.0 μM; pH 7.4 (PBS); 25 °C
[16] = target: T5, human serum albumin (HSA), site I (Trp-214) (Homo sapiens, UniProt P02768); assay: Steady-state fluorometry, quenching of HSA Trp-214 fluorescence; type: binding; settings: pH 7.4 (PBS), 25 °C
T5 construct: purchased Sigma–Aldrich A8763

human serum proteins = settings: cited from earlier work
[17] = target: T1, α1-acid glycoprotein (AGP); assay: Frontal analysis capillary electrophoresis (FACE) with AGP; type: binding; settings: pH 7.4 (PBS); 25 °C
physchem [18] = settings: pH 2, thermodynamic from solid
HSA + AGP = settings: human, 200 μM, pH 7.4
[19] = system: human blood serum (HMM fraction); settings: pH 7.4
[20] = target: T3, human serum albumin (HSA); assay: Ultrafiltration-UV-vis with HSA; type: in vitro ADME; settings: for protein bound fraction: pH 7.4 (PBS), 25 °C
HSA = target: T6, HSA (Homo sapiens, UniProt P02768); assay: Hydrolysis of MOLNU in the presence of HSA, 1H NMR; type: in vitro ADME; settings: HSA 630 μM; 1 mM MOLNU; PBS
T6 construct: purchased Sigma–Aldrich A8763

[21] = Aqueous stability of MOLNU followed by 1H NMR; type: physicochemical; settings: 25 °C; for hydrolyzed products: in 5 days
Procedure: Molnupiravir, one of the title compounds, contains an ester functional group that may hydrolyze under certain conditions. Therefore, the aqueous stability of MOLNU was investigated as a first step at pH 2.0, 7.4, and 12.0 by ^1H NMR spectroscopy.
^1H NMR spectroscopic measurements were carried out on a Bruker Avance III HD instrument (Billerica, MA, USA). The spectra were recorded with WATERGATE water suppression pulse sequence using DSS internal standard and 10% (v/v) D2O. Aqueous stability of MOLNU was followed at pH 2.0, 7.4 and 12.0.

human transferrin = target: T7, human transferrin (Homo sapiens, UniProt P02787); assay: Hydrolysis of MOLNU in the presence of transferrin, 1H NMR; type: in vitro ADME; settings: 45 μM human transferrin; same behavior = no hydrolysis as with HSA
T7 construct: purchased Sigma–Aldrich T3309

[22] = pH 2.0, calculated from pKa values
[23] = pH 7.4, calculated from pKa values
[24] = pH 7.4, using pKa4 = 7.7 determined by Szakács et al. [48]

T5 sequence (P02768 25-609): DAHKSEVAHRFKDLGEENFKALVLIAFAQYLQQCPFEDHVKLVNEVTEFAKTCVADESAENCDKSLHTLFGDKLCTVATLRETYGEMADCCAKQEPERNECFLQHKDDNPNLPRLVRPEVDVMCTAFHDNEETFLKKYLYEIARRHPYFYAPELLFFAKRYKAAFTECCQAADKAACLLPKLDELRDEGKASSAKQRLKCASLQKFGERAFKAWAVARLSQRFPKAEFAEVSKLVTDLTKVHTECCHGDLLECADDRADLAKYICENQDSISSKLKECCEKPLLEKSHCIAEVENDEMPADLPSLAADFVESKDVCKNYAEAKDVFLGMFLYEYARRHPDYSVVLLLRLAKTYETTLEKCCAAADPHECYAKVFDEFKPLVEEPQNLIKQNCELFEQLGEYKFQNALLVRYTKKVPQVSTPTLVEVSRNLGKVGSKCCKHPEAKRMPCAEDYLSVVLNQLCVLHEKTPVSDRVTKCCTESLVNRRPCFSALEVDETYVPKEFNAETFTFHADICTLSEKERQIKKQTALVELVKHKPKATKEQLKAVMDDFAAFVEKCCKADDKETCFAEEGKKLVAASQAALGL
T3 sequence (P02768 25-609): as above
T1 sequence (P02763 19-201): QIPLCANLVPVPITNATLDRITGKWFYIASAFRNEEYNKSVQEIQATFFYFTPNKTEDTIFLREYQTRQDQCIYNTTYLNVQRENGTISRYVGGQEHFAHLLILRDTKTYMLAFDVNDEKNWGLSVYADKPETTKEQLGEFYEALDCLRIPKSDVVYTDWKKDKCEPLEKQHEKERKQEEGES
T2 sequence (P02768 25-609): as the sequence (P02768 25-609) above
T4 sequence (P02768 25-609): as above
T6 sequence (P02768 25-609): as above
T7 sequence (P02787 20-698): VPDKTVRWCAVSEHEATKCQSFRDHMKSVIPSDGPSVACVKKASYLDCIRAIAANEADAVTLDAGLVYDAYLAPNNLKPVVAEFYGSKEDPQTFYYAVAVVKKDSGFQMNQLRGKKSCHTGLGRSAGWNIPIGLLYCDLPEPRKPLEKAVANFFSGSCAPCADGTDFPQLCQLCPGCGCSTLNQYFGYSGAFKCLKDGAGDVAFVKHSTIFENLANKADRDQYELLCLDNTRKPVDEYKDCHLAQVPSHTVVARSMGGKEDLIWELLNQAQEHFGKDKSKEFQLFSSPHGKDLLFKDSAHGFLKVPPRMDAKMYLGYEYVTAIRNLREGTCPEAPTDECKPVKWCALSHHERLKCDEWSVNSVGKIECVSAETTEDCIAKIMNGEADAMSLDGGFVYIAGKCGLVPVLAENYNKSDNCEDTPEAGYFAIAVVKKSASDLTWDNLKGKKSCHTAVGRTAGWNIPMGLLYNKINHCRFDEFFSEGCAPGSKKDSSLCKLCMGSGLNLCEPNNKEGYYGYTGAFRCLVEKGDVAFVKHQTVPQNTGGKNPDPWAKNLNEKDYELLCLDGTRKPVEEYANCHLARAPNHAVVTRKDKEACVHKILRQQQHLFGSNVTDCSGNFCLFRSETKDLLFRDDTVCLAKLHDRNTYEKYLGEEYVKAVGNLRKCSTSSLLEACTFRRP

For `CC(C)C(=O)O` [isobutyric acid], the pKa ([1]; I = 0.1 M NaNO3) is listed as 4.67.

For `Cc1ccc(NC(=O)c2ccc(CN3CCN(C)CC3)cc2)cc1Nc1nccc(-c2cccnc2)n1` [IMA, imatinib], the “logK′” value (AGP [2]) is given as 3.51, the “ΔlogK′, effect of long-term storage of AGP in plastic microtubes” value [3] is given as 0.2 and the “stable in aqueous media at least for” value [4] is given as no less than 30 h. The pKa4 ([1]; pH-potentiometry, I = 0.15 M NaCl, ref 48 (Szakács et al.)) was 7.7, the “displacement of DG from HSA site II” value (HSA site II; pH 7.4) was “unable to displace DG” and the “K′” value (HSA (fatty acid free)) was 1.2 × 10^5 1.0 × 10^5. It also gave a pKa ([5]; I = 0.1 M (KCl), 25 °C, read-out: pKa2 (pHm)) of 3.06, a pKa ([5]; I = 0.1 M (KCl), 25 °C, read-out: pKa3 (pHm)) of 3.86 and a pKa ([5]; I = 0.1 M (KCl), 25 °C, read-out: pKa4 (pHm)) greater than 7. The “logK′” value (AGP (F1-S)) was 6.23, the pKa ([6]; I = 0.1 M (KCl), 25 °C, read-out: pKa1 (UV-vis)) was 1.72 and the “K′” value (AGP [7]) was 8.7 × 10^2. For the same molecule, the “logK′” value (AGP [7]) was 2.94, the pKa (physchem [8]) was 7.9 and the “logK′” value (AGP (native); AGP (native), pH 7.4 (ringer), 37 °C, circular dichroism) was 6.38. The “K′” value (AGP (native); pH 7.4) was 2.4 × 10^6 1.7 × 10^6, the “species H2L2+” value [9, 22] was “H2L^2+: 5%” and the “species H3L3+” value [9, 22] was 62%. For the same molecule, the “species H4L4+” value [9, 22] was 33%, the “species HL+” value [9, 23] was 76% and the “species HL+” value [9, 24] was 67%. The “species L” value [9, 24] was 33%, the “logK′” value (AGP [10]) was 6.69 and the “binding to HSA in FACE” value ([11]; pH 7.4) was “no considerable binding”.

In the case of `O=c1nc(NO)ccn1[C@@H]1O[C@H](CO)[C@@H](O)[C@H]1O` [EIDD-1931, N(4)-hydroxycytidine], the plasma protein binding (plasma protein) is given as “No plasma protein binding was observed”.

With `NC(=O)c1nc(F)c[nH]c1=O` [FAVI, favipiravir] the pKa (physchem [12]) was 5.17, the logD at 2 h (physchem [13]) was 0.15 and the “quenching of the fluorescence of AGP” value ([3]; 91 equiv. of compound) was 6%. The “quenching of the fluorescence of AGP” value [3] was “did not quench”, the bound fraction [14] was “less than 2%” and the protein bound fraction ([14]; 25 μM) was less than 2%. It also gave a protein bound fraction ([14]; 50 μM) of less than 2%, a protein bound fraction ([14]; 100 μM) of less than 2% and a protein bound fraction ([14]; 200 μM) of less than 2%. The “stable in aqueous media at least for” value [4] was no less than 30 h, the “displacement of WF from HSA site I” value (HSA site I) was “no competition” and the “displacement of DIP from AGP” value [15] was “no interaction between the studied species takes place”. The pKa ([5]; pKa1 (pHm)) was 5.11, the pKa ([6]; pKa1 (UV-vis)) was 5.08 and the “quenching of HSA (Trp-214) fluorescence” value [16] was “did not significantly quench”. For the same molecule, the “quenching of HSA (Trp-214) fluorescence” value ([16]; listed as Favipiravir) was “did not quench”, the “binding attributed to AGP” value (human serum proteins) was 6.5% and the “binding attributed to HSA” value (human serum proteins) was 65%. The “binding to AGP in FACE” value [17] was “neither of the two proteins are involved in binding of FAVI”, the pKa (physchem [8]) was 5.1 and the solubility thermodynamic (physchem [18]) was no less than 10 mM. For the same molecule, the “species L−” value [9, 23] was “L^−:100%”, the protein bound fraction (HSA + AGP) was 2 ± 1% and the “binding to HSA in FACE” value ([11]; up to 5 equiv. albumin, pH 7.4 (PBS), 25 °C) was “neither of the two proteins are involved in binding of FAVI”. The protein bound fraction ([19]; 200 μM) was 22 ± 2%, the protein bound fraction ([20]; HSA 50 μM, 50 μM compound, IMA corrected for 85% filter adhesion) was less than 2% and the protein bound fraction ([20]; HSA 630 μM, 200 μM compound) was less than 2%. For the same molecule, the bound fraction ([20]; different concentrations of HSA) was “less than 2%”.

In the case of `CC(C)C(=O)OC[C@H]1O[C@@H](n2ccc(NO)nc2=O)[C@H](O)[C@@H]1O` [MOLNU, molnupiravir], the logD at 2 h (physchem [13]) is reported as -0.68 ± 0.02, the “quenching of the fluorescence of AGP” value [3] is reported as “did not quench” and the “hydrolysis of MOLNU within two days” value (HSA) is reported as “Neither of the two media could induce hydrolysis; also recorded: could not hydrolyze the ester bond”. The “displacement of WF from HSA site I” value (HSA site I) was “no competition”, the “displacement of DG from HSA site II” value (HSA site II; HSA-DG 1:1, pH 7.4 (PBS), 25 °C) was “could not displace DG” and the pKa ([5]; pKa1 (pHm)) was 2.14. The pKa ([5]; pKa2 (pHm)) was 10.2, the pKa ([6]; pKa1 (UV-vis)) was 2.11 and the pKa ([6]; pKa2 (UV-vis)) was 10.3. The “quenching of HSA (Trp-214) fluorescence” value [16] was “did not significantly quench”, the hydrolyzed products ([21]; pH 2.0) was 8% and the hydrolyzed products ([21]; pH 7.4) was 2%. For the same molecule, the “time within which MOLNU hydrolyzes completely to isobutyrate and EIDD-1931” value ([21]; pH 12.0, cMOLNU = 1 mM) was no more than 30 min, the solubility thermodynamic (physchem [18]) was no less than 10 mM and the “species H2L+” value [9, 22] was 58%. For the same molecule, the “species HL” value [9, 22] was 42%, the “species HL” value [9, 23] was “HL: 100%” and the “hydrolysis of MOLNU within two days” value (human transferrin) was “The same behavior was observed”. The protein bound fraction ([19]; 30 μM) was “less than 2%” and the protein bound fraction ([20]; HSA 630 μM, 30 μM compound) was less than 2%.
